The results in this text go back to PMC9286623.

The data set is described as follows: head-to-tail macrolactamisation of side-chain-protected linear peptides (crude from 2-ClTrt resin, TFE cleavage); DEPBT (2-2.5 equiv), NEt3 (10-12 equiv), 24 h; AcOH quench, prep HPLC. The conditions noted are these: MeCN with <1-10% DMSO (3i: 5% DMF in MeCN), 2.0 mM, 25.0 °C.

On to `CC(C)C[C@@H]1NC(=O)[C@H](CC(C)C)NC(=O)[C@H](CC(=O)NC(c2ccccc2)(c2ccccc2)c2ccccc2)NC(=O)[C@@H]2CCCN2C(=O)[C@@H]2CCCN2C(=O)[C@H](CSC(c2ccccc2)(c2ccccc2)c2ccccc2)NC(=O)[C@H](CC(C)C)NC(=O)[C@H](CCC(=O)OC(C)(C)C)NC1=O` [H-Glu(OtBu)-Leu-Cys(Trt)-Pro-Pro-Asn(Trt)-Leu-Leu-OH], for which the ring closure, isolated yield (from CC(C)C[C@H](NC(=O)[C@H](CC(C)C)NC(=O)[C@H](CC(=O)NC(c1ccccc1)(c1ccccc1)c1ccccc1)NC(=O)[C@@H]1CCCN1C(=O)[C@@H]1CCCN1C(=O)[C@H](CSC(c1ccccc1)(c1ccccc1)c1ccccc1)NC(=O)[C@H](CC(C)C)NC(=O)[C@@H](N)CCC(=O)OC(C)(C)C)C(=O)O, 24-membered ring, 24.0 h) was 26%. Take `Cc1c(C)c(S(=O)(=O)NC(=N)NCCC[C@@H]2NC(=O)[C@H](C)NC(=O)[C@H](CSC(c3ccccc3)(c3ccccc3)c3ccccc3)NC(=O)[C@H]([C@@H](C)OC(C)(C)C)NC(=O)[C@H](CSC(c3ccccc3)(c3ccccc3)c3ccccc3)NC2=O)c(C)c2c1OC(C)(C)C2` [H-Arg(Pbf)-Cys(Trt)-Thr(tBu)-Cys(Trt)-Ala-OH]: the ring closure, isolated yield (from Cc1c(C)c(S(=O)(=O)NC(=N)NCCC[C@H](N)C(=O)N[C@@H](CSC(c2ccccc2)(c2ccccc2)c2ccccc2)C(=O)N[C@H](C(=O)N[C@@H](CSC(c2ccccc2)(c2ccccc2)c2ccccc2)C(=O)N[C@@H](C)C(=O)O)[C@@H](C)OC(C)(C)C)c(C)c2c1OC(C)(C)C2, 15-membered ring, 24.0 h) came to 16%.

On to `CC[C@H](C)[C@@H]1NC(=O)[C@H](CSC(c2ccccc2)(c2ccccc2)c2ccccc2)NC(=O)[C@@H]2CCCN2C(=O)[C@H](CCCCNC(=O)OC(C)(C)C)NC(=O)[C@H](COC(C)(C)C)NC(=O)[C@H](CCCCNC(=O)OC(C)(C)C)NC(=O)[C@H](CCCCNC(=O)OC(C)(C)C)NC(=O)[C@H](Cc2ccccc2)NC1=O`, for which the ring closure, isolated yield (from CC[C@H](C)[C@H](NC(=O)[C@H](CSC(c1ccccc1)(c1ccccc1)c1ccccc1)NC(=O)[C@@H]1CCCN1C(=O)[C@H](CCCCNC(=O)OC(C)(C)C)NC(=O)[C@H](COC(C)(C)C)NC(=O)[C@@H](N)CCCCNC(=O)OC(C)(C)C)C(=O)N[C@@H](Cc1ccccc1)C(=O)N[C@@H](CCCCNC(=O)OC(C)(C)C)C(=O)O, 24-membered ring, 24.0 h) was 36%. Regarding `Cc1c(C)c(S(=O)(=O)NC(=N)NCCC[C@@H]2NC(=O)[C@H](C)NC(=O)[C@H](Cc3cn(C(=O)OC(C)(C)C)c4ccccc34)NC(=O)[C@H]([C@@H](C)OC(C)(C)C)NC(=O)[C@@H]3CCCN3C2=O)c(C)c2c1OC(C)(C)C2` [H-Arg(Pbf)-Pro-Thr(tBu)-Trp(Boc)-Ala-OH], the ring closure, isolated yield (from Cc1c(C)c(S(=O)(=O)NC(=N)NCCC[C@H](N)C(=O)N2CCC[C@H]2C(=O)N[C@H](C(=O)N[C@@H](Cc2cn(C(=O)OC(C)(C)C)c3ccccc23)C(=O)N[C@@H](C)C(=O)O)[C@@H](C)OC(C)(C)C)c(C)c2c1OC(C)(C)C2, 15-membered ring, 24.0 h) turned out to be 0%.

For the compound `CC[C@H](C)[C@@H]1NC(=O)[C@@H]2CCCN2C(=O)[C@H](CCCCNC(=O)OC(C)(C)C)NC(=O)[C@H](CSC(c2ccccc2)(c2ccccc2)c2ccccc2)NC(=O)[C@H](Cc2cn(C(=O)OC(C)(C)C)c3ccccc23)NC(=O)[C@H]([C@@H](C)OC(C)(C)C)NC(=O)[C@@H]2CCCN2C1=O` [H-Trp(Boc)-Cys(Trt)-Lys(Boc)-Pro-Ile-Pro-Thr(tBu)-OH], where the note is “from CC[C@H](C)[C@H](NC(=O)[C@@H]1CCCN1C(=O)[C@H](CCCCNC(=O)OC(C)(C)C)NC(=O)[C@H](CSC(c1ccccc1)(c1ccccc1)c1ccccc1)NC(=O)[C@@H](N)Cc1cn(C(=O)OC(C)(C)C)c2ccccc12)C(=O)N1CCC[C@H]1C(=O)N[C@H](C(=O)O)[C@@H](C)OC(C)(C)C, 21-membered ring, 24.0 h”, the ring closure, isolated yield turned out to be 12%. With `Cc1c(C)c(S(=O)(=O)NC(=N)NCCC[C@@H]2NC(=O)[C@H](C)NC(=O)[C@H](Cc3cn(C(=O)OC(C)(C)C)c4ccccc34)NC(=O)[C@H]([C@@H](C)OC(C)(C)C)NC(=O)[C@H](C)NC2=O)c(C)c2c1OC(C)(C)C2` [H-Arg(Pbf)-Ala-Thr(tBu)-Trp(Boc)-Ala-OH], where the note is “from Cc1c(C)c(S(=O)(=O)NC(=N)NCCC[C@H](N)C(=O)N[C@@H](C)C(=O)N[C@H](C(=O)N[C@@H](Cc2cn(C(=O)OC(C)(C)C)c3ccccc23)C(=O)N[C@@H](C)C(=O)O)[C@@H](C)OC(C)(C)C)c(C)c2c1OC(C)(C)C2, 15-membered ring, 24.0 h”, the ring closure, isolated yield is 27%. For the compound `CC(C)C[C@@H]1NC(=O)[C@H](CSC(c2ccccc2)(c2ccccc2)c2ccccc2)NC(=O)[C@H](CC(C)C)NC(=O)[C@@H]2CCCN2C(=O)[C@H](CC(=O)NC(c2ccccc2)(c2ccccc2)c2ccccc2)NC(=O)[C@H](CC(C)C)NC(=O)[C@@H]2CCCN2C(=O)[C@H](CCC(=O)OC(C)(C)C)NC1=O` [H-Leu-Glu(OtBu)-Pro-Leu-Asn(Trt)-Pro-Leu-Cys(Trt)-OH], the ring closure, isolated yield (from CC(C)C[C@H](NC(=O)[C@@H]1CCCN1C(=O)[C@H](CC(=O)NC(c1ccccc1)(c1ccccc1)c1ccccc1)NC(=O)[C@H](CC(C)C)NC(=O)[C@@H]1CCCN1C(=O)[C@H](CCC(=O)OC(C)(C)C)NC(=O)[C@@H](N)CC(C)C)C(=O)N[C@@H](CSC(c1ccccc1)(c1ccccc1)c1ccccc1)C(=O)O, 24-membered ring, 24.0 h) was determined as 23%. Consider `Cc1c(C)c(S(=O)(=O)NC(=N)NCCC[C@@H]2NC(=O)[C@H](C)NC(=O)[C@H](C)NC(=O)[C@H]([C@@H](C)OC(C)(C)C)NC(=O)[C@H](CSC(c3ccccc3)(c3ccccc3)c3ccccc3)NC2=O)c(C)c2c1OC(C)(C)C2` [H-Arg(Pbf)-Cys(Trt)-Thr(tBu)-Ala-Ala-OH], for which, for the setting “from Cc1c(C)c(S(=O)(=O)NC(=N)NCCC[C@H](N)C(=O)N[C@@H](CSC(c2ccccc2)(c2ccccc2)c2ccccc2)C(=O)N[C@H](C(=O)N[C@@H](C)C(=O)N[C@@H](C)C(=O)O)[C@@H](C)OC(C)(C)C)c(C)c2c1OC(C)(C)C2, 15-membered ring, 24.0 h”, the ring closure, isolated yield stood at 21%.

As to `CC[C@H](C)[C@@H]1NC(=O)[C@@H]2CCCN2C(=O)[C@H](CCCCNC(=O)OC(C)(C)C)NC(=O)[C@H](CSC(c2ccccc2)(c2ccccc2)c2ccccc2)NC(=O)[C@H](Cc2cn(C(=O)OC(C)(C)C)c3ccccc23)NC(=O)[C@H]([C@@H](C)OC(C)(C)C)NC(=O)[C@@H]2CCCN2C1=O` [H-Lys(Boc)-Pro-Ile-Pro-Thr(tBu)-Trp(Boc)-Cys(Trt)-OH], for the setting “from CC[C@H](C)[C@H](NC(=O)[C@@H]1CCCN1C(=O)[C@@H](N)CCCCNC(=O)OC(C)(C)C)C(=O)N1CCC[C@H]1C(=O)N[C@H](C(=O)N[C@@H](Cc1cn(C(=O)OC(C)(C)C)c2ccccc12)C(=O)N[C@@H](CSC(c1ccccc1)(c1ccccc1)c1ccccc1)C(=O)O)[C@@H](C)OC(C)(C)C, 21-membered ring”, the ring closure, isolated yield came out at 0%. On to `CC[C@H](C)[C@@H]1NC(=O)[C@H](Cc2cn(C(=O)OC(C)(C)C)c3ccccc23)NC(=O)[C@@H]2CCCN2C(=O)[C@H](CSC(c2ccccc2)(c2ccccc2)c2ccccc2)NC(=O)[C@@H]2CCCN2C(=O)[C@H](CCCCNC(=O)OC(C)(C)C)NC(=O)[C@H]([C@@H](C)OC(C)(C)C)NC1=O` [H-Thr(tBu)-Lys(Boc)-Pro-Cys(Trt)-Pro-Trp(Boc)-Ile-OH], for which the ring closure, isolated yield (from CC[C@H](C)[C@H](NC(=O)[C@H](Cc1cn(C(=O)OC(C)(C)C)c2ccccc12)NC(=O)[C@@H]1CCCN1C(=O)[C@H](CSC(c1ccccc1)(c1ccccc1)c1ccccc1)NC(=O)[C@@H]1CCCN1C(=O)[C@H](CCCCNC(=O)OC(C)(C)C)NC(=O)[C@@H](N)[C@@H](C)OC(C)(C)C)C(=O)O, 21-membered ring, 24.0 h) is 29%. In the case of `Cc1c(C)c(S(=O)(=O)NC(=N)NCCC[C@@H]2NC(=O)[C@H](C)NC(=O)[C@H](Cc3cn(C(=O)OC(C)(C)C)c4ccccc34)NC(=O)[C@H]([C@@H](C)OC(C)(C)C)NC(=O)[C@H](CSC(c3ccccc3)(c3ccccc3)c3ccccc3)NC2=O)c(C)c2c1OC(C)(C)C2` [H-Arg(Pbf)-Cys(Trt)-Thr(tBu)-Trp(Boc)-Ala-OH], the ring closure, isolated yield (from Cc1c(C)c(S(=O)(=O)NC(=N)NCCC[C@H](N)C(=O)N[C@@H](CSC(c2ccccc2)(c2ccccc2)c2ccccc2)C(=O)N[C@H](C(=O)N[C@@H](Cc2cn(C(=O)OC(C)(C)C)c3ccccc23)C(=O)N[C@@H](C)C(=O)O)[C@@H](C)OC(C)(C)C)c(C)c2c1OC(C)(C)C2, 15-membered ring, 24.0 h) turned out to be 16%. For the compound `CC[C@H](C)[C@@H]1NC(=O)[C@H](COC(C)(C)C)NC(=O)[C@H](CCCCNC(=O)OC(C)(C)C)NC(=O)[C@H](Cc2ccccc2)NC(=O)[C@@H]2CCCN2C(=O)[C@H](CCCCNC(=O)OC(C)(C)C)NC(=O)[C@H](CSC(c2ccccc2)(c2ccccc2)c2ccccc2)NC(=O)[C@H](CCCCNC(=O)OC(C)(C)C)NC1=O`, under “from CC[C@H](C)[C@H](NC(=O)[C@H](COC(C)(C)C)NC(=O)[C@H](CCCCNC(=O)OC(C)(C)C)NC(=O)[C@H](Cc1ccccc1)NC(=O)[C@@H]1CCCN1C(=O)[C@H](CCCCNC(=O)OC(C)(C)C)NC(=O)[C@H](CSC(c1ccccc1)(c1ccccc1)c1ccccc1)NC(=O)[C@@H](N)CCCCNC(=O)OC(C)(C)C)C(=O)O, 24-membered ring, 24.0 h”, the ring closure, isolated yield came to 22%.
